In ChEMBL document CHEMBL5126607, “Discovery and In Vivo Evaluation of ACT-660602: A Potent and Selective Antagonist of the Chemokine Receptor CXCR3 for Autoimmune Diseases” (J Med Chem, 2022):
Values after ≈ are worked out from the molar mass of the structure shown.

How the values were obtained:
in vivo [1] = settings: Balb/c, mouse, po, 10 mg/kg
[2] = target: T1, C-X-C chemokine receptor type 3 (Homo sapiens, UniProt P49682)
T1 sequence (P49682 whole entry): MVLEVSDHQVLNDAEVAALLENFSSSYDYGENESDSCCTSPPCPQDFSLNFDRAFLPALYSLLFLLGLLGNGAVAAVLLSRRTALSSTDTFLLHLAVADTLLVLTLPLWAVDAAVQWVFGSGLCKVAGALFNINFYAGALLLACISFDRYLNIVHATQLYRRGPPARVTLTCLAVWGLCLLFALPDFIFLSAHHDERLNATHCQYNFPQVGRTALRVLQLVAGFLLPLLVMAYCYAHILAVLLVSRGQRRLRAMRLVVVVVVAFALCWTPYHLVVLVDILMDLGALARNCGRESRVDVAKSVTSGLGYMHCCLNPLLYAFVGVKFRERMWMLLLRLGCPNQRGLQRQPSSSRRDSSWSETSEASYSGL
Description: Antagonist activity at recombinant human CXCR3 expressed in human CHO-K1 cells co-expressing Galpha15 incubated for 10 mins by Fluo-4AM dye based FLIPR assay

[3] = target: T1, C-X-C chemokine receptor type 3; remark: listed apart in the source
Description: Antagonist activity at recombinant human CXCR3 in human U2SO cells assessed as reduction in CXCL10-induced beta-arrestin recruitment by TANGO assay

[4] = target: T2, Voltage-gated inwardly rectifying potassium channel KCNH2 (Homo sapiens, UniProt Q12809); assay: Inhibition of hERG expressed in CHO cells by Q patch-clamp method
in vivo [5] = settings: Balb/c, mouse, po, 10 mg/kg; remark: listed apart in the source
in vitro = settings: human, microsomes
[6] = Fractional unbound plasma concentration in mouse at 1 mg/kg, iv and 10 mg/kg, po
in vivo [7] = settings: Balb/c, mouse, po, 10 mg/kg; remark: listed apart in the source
[8] = target: T1, C-X-C chemokine receptor type 3; remark: listed apart in the source
Description: Inhibition of CXCR3 receptor internalization in human venous whole blood incubated for 30 mins by flow cytometer analysis

in vivo [9] = settings: Balb/c, mouse, po, 10 mg/kg; remark: listed apart in the source
[10] = Half life in BALB/c mouse at 1 mg/kg, iv and 10 mg/kg, po; settings: in vivo
hERG = hERG (Homo sapiens, UniProt Q12809); assay: Inhibition of hERG expressed in CHO cells 3 uM at by Q patch-clamp method relative to control; assay type: toxicity, cell-based; settings: CHO cells that express hERG
in vivo [11] = settings: Wistar, rat, po, 2 mg/kg
[12] = Lipophilicity, log D of the compound at pH 7.4; settings: buffer
[13] = Metabolic stability in rat hepatocyte assessed as intrinsic clearance measured per 10^6 cells in presence of NADPH regenerating system by LC-MS/MS analysis; settings: hepatocytes
[14] = Fractional unbound plasma concentration in Beagle dog at 0.5 mg/kg, iv and 2 mg/kg, po
in vivo [15] = settings: beagle, dog, po, 2 mg/kg
in vivo [16] = settings: Wistar, rat, po, 2 mg/kg; remark: listed apart in the source
[17] = Metabolic stability in Beagle dog hepatocyte assessed as intrinsic clearance measured per 10^6 cells in presence of NADPH regenerating system by LC-MS/MS analysis; settings: hepatocytes
in vivo [18] = settings: beagle, dog, po, 2 mg/kg; remark: listed apart in the source
[19] = Half life in Wistar rat at 0.5 mg/kg, iv and 2 mg/kg, po; settings: in vivo
[20] = Fractional unbound plasma concentration in Balb/c mouse at 10 mg/kg, po
[21] = Half life in Beagle dog at 0.5 mg/kg, iv and 2 mg/kg, po; settings: in vivo
in vivo [22] = settings: beagle, dog, po, 2 mg/kg; remark: listed apart in the source
in vivo [23] = settings: Wistar, rat, po, 2 mg/kg; remark: listed apart in the source
[24] = target: T2, Voltage-gated inwardly rectifying potassium channel KCNH2; assay: Inhibition of hERG by manual patch clamp method
[25] = Fractional unbound plasma concentration in Wistar rat at 0.5 mg/kg, iv and 2 mg/kg, po; settings: in vivo
in vivo [26] = settings: Wistar, rat, po, 2 mg/kg; remark: listed apart in the source
in vivo [27] = settings: beagle, dog, po, 2 mg/kg; remark: listed apart in the source
[28] = Half life in Wistar rat at 0.2 mg/kg, iv and 2 mg/kg, po; settings: in vivo
[29] = Fractional unbound plasma concentration in rat at 0.2 mg/kg, iv and 2 mg/kg, po
[30] = Solubility of the compound in pH 7 buffer
[31] = Solubility of the compound in FeSSIF
[32] = Solubility of the compound in FaSSIF

T2 sequence (Q12809 whole entry): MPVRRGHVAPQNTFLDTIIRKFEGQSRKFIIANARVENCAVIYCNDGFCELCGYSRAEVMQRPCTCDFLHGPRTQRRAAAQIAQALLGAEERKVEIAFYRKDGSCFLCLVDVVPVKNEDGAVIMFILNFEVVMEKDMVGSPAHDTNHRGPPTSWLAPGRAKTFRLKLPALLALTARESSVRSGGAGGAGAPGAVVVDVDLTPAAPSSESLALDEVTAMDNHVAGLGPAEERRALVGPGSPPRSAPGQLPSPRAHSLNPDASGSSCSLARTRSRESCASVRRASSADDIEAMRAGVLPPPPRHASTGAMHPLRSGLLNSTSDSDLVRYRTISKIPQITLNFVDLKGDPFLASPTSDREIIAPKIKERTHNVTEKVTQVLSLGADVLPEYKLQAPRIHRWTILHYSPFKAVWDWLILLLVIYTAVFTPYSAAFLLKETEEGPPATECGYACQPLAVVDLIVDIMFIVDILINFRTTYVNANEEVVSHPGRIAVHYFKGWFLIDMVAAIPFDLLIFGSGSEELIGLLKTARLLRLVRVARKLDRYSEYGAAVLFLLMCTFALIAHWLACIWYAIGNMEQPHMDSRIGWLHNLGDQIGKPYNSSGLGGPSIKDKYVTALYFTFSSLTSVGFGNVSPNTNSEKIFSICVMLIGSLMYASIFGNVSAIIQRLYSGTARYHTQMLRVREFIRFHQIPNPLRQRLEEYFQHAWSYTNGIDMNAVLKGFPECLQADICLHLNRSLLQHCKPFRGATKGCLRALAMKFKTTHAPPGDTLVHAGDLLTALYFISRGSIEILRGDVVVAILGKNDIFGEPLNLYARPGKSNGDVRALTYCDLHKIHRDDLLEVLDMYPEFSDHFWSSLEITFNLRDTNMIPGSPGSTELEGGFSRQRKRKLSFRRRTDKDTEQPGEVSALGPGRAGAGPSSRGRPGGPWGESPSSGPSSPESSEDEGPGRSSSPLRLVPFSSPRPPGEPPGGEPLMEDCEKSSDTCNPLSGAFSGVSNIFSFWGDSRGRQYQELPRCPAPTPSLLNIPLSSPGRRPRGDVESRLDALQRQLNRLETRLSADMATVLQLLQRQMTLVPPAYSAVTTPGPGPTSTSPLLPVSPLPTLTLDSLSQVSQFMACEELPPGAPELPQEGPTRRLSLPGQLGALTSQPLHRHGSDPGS
hERG, sequence (Q12809 whole entry): as above

Row | SMILES | Tmax (in vivo [1]) | IC50 [2] | IC50 [3] | microsomal CLint at 1 µM (in vitro) | fraction unbound [6] | Cmax (in vivo [7]) | IC50 [8] | AUC (in vivo [9]) | bioavailability (in vivo [11]) | logD [12] | hepatocyte CLint [13] | fraction unbound [14] | bioavailability (in vivo [15]) | AUC (in vivo [16]) | hepatocyte CLint [17] | half-life [19] | Tmax (in vivo [23]) | Cmax (in vivo [26]) | IC50 [4] | inhibition at 3 µM (hERG) | other results
1 | CCOc1ncc(-c2nc(C(F)(F)F)sc2N2CCN(C(=O)Cn3cnc(C(F)(F)F)n3)[C@H](C)C2)cn1 | – | – | – | – | – | – | – | – | – | – | – | – | – | – | – | – | – | – | > 6000 nM | 31% | –
2 | Cc1nc(C)n(CC(=O)N2CCN(c3sc(C(F)(F)F)nc3-c3cnc(OC(C)C)nc3)C[C@H]2C)n1 | – | 3.4 nM | 138 nM | 16 µL/min/mg | – | – | 216 nM | – | 89% | – | 2.5 µL/min/1e6 cells | 0.192 | – | 3980 ng·h/mL | 6.8 µL/min/1e6 cells | 108 min | 30 min | 806 ng/mL | > 20000 nM | – | fraction unbound [25]: 0.035
3 | Cc1nc(C)n(CC(=O)N2CCN(c3sc(C(F)(F)F)nc3-c3cnc(C(F)(F)F)nc3)C[C@H]2C)n1 | – | – | – | < 10 µL/min/mg | – | – | – | – | 80% | 2.9 | < 2 µL/min/1e6 cells | – | 80% | 14000 ng·h/mL | < 2 µL/min/1e6 cells | 426 min | 30 min | 1520 ng/mL | – | – | solubility [30]: 387 µg/mL (≈ 724 µM); AUC (in vivo [18]): 20000 ng·h/mL; half-life [21]: 870 min; Tmax (in vivo [22]): 60 min; solubility [31]: 530 µg/mL (≈ 992 µM); solubility [32]: 450 µg/mL (≈ 842 µM); Cmax (in vivo [27]): 1380 ng/mL

Further lines, with some results ahead:

Row | Tmax (in vivo [1]) | IC50 [2] | IC50 [3] | microsomal CLint at 1 µM (in vitro) | fraction unbound [6] | Cmax (in vivo [7]) | IC50 [8] | AUC (in vivo [9]) | bioavailability (in vivo [11]) | logD [12] | hepatocyte CLint [13] | fraction unbound [14] | bioavailability (in vivo [15]) | AUC (in vivo [16]) | hepatocyte CLint [17] | half-life [19] | Tmax (in vivo [23]) | Cmax (in vivo [26]) | SMILES | IC50 [4] | inhibition at 3 µM (hERG) | other results
4 | 60 min | 5.9 nM | 830 nM | 12 µL/min/mg | 0.122 | 95.2 ng/mL | 554 nM | 60.7 ng·h/mL | – | – | – | – | – | – | – | – | – | – | C[C@@H]1CN(c2scnc2-c2nc3ccccc3[nH]2)CCN1C(=O)Cn1cnc2cccnc21 | 2200 nM | – | bioavailability (in vivo [5]): 4%; half-life [10]: 6 min
5 | 30 min | 7 nM | 173 nM | < 10 µL/min/mg | – | 11600 ng/mL | 364 nM | 63600 ng·h/mL | 52% | 2.8 | < 2 µL/min/1e6 cells | 0.328 | 52% | 2850 ng·h/mL | 5.1 µL/min/1e6 cells | 372 min | 30 min | 574 ng/mL | CCOc1ncc(-c2nc(C(F)(F)F)sc2N2CCN(C(=O)Cn3nc(C)nc3C)[C@H](C)C2)cn1 | > 20000 nM | 4% | AUC (in vivo [18]): 861 ng·h/mL; fraction unbound [20]: 0.023; half-life [21]: 60 min; Tmax (in vivo [22]): 30 min; IC50 [24]: 44000 nM; fraction unbound [25]: 0.101; Cmax (in vivo [27]): 415 ng/mL
6 | – | 1.6 nM | 31 nM | 89 µL/min/mg | 0.01 | – | 70 nM | – | 7% | – | – | – | – | 191 ng·h/mL | – | – | 36 min | 91.3 ng/mL | C[C@@H]1CN(c2sc(C(F)(F)F)nc2-c2nc3ccccc3[nH]2)CCN1C(=O)Cn1cnc2cccnc21 | 1750 nM | – | half-life [28]: 48 min; fraction unbound [29]: 0.017
